The source made the active and inactive calls. No cut-off for these calls is given here.
Columns and labels:
MCF7 [1] = assay: Downregulation of Akt1 mRNA expression in human MCF7 cells at 2 uM after 48 hrs by qRT-PCR analysis; type: functional, cell-based
MCF7 [2] = assay: Downregulation of Bcl-2 mRNA expression in human MCF7 cells at 2 uM after 48 hrs by qRT-PCR analysis; type: functional, cell-based
LOX IMVI [3] = assay: Cytotoxicity against human LOXIMVI cells assessed as cell growth at 1 uM after 48 hrs by sulforhodamine B assay relative to control; type: functional; details: read-out: Activity
MCF7 [4] = assay: Cell cycle arrest in human MCF7 cells assessed as accumulation at G2/M phase at 2 uM after 24 hrs by flow cytometric analysis (reference value: 2.35%); type: functional
CAKI-1 [5] = assay: Cytotoxicity against human Caki1 cells assessed as cell growth at 1 uM after 48 hrs by sulforhodamine B assay relative to control; type: functional; details: CAKI-1, 48 h, read-out: Activity
HOP-92 [6] = assay: Cytotoxicity against human HOP92 cells assessed as cell growth at 10 uM after 48 hrs by sulforhodamine B assay relative to control; type: functional; details: HOP-92, 48 h, read-out: Activity
MCF7 [7] = assay: Upregulation of BAX mRNA expression in human MCF7 cells at 2 uM after 48 hrs by qRT-PCR analysis; type: functional, cell-based
MCF7 [8] = assay: Downregulation of mTOR protein expression in human MCF7 cells at 2 uM after 24 hrs by Western blot analysis; type: functional, cell-based
CAKI-1 [9] = assay: Cytotoxicity against human Caki1 cells assessed as cell growth at 0.01 uM after 48 hrs by sulforhodamine B assay relative to control; type: functional; details: CAKI-1, 48 h, read-out: Activity
MCF7 [10] = assay: Induction of apoptosis in human MCF7 cells assessed as necrotic cells at 2 uM after 24 hrs by Annexin-V FITC/propidium iodide staining-based FACS analysis (reference value: 0.2%); type: functional
SK-MEL-2 [11] = assay: Cytotoxicity against human SK-MEL-2 cells assessed as cell growth at 0.01 uM after 48 hrs by sulforhodamine B assay relative to control; type: functional; details: SK-MEL-2, 48 h, read-out: Activity
HOP-92 [12] = assay: Cytotoxicity against human HOP92 cells assessed as cell growth at 1 uM after 48 hrs by sulforhodamine B assay relative to control; type: functional; details: HOP-92, 48 h, read-out: Activity
LOX IMVI [13] = assay: Cytotoxicity against human LOXIMVI cells assessed as cell growth at 0.01 uM after 48 hrs by sulforhodamine B assay relative to control; type: functional; details: read-out: Activity
CAKI-1 [14] = assay: Cytotoxicity against human Caki1 cells assessed as cell growth at 10 uM after 48 hrs by sulforhodamine B assay relative to control; type: functional; details: CAKI-1, 48 h, read-out: Activity
SK-MEL-2 [15] = assay: Cytotoxicity against human SK-MEL-2 cells assessed as cell growth at 0.1 uM after 48 hrs by sulforhodamine B assay relative to control; type: functional; details: SK-MEL-2, 48 h, read-out: Activity
LOX IMVI [16] = assay: Cytotoxicity against human LOXIMVI cells assessed as cell growth at 0.1 uM after 48 hrs by sulforhodamine B assay relative to control; type: functional; details: read-out: Activity
CAKI-1 [17] = assay: Cytotoxicity against human Caki1 cells assessed as growth inhibition after 48 hrs by sulforhodamine B assay; type: functional; details: CAKI-1, 48 h
HOP-92 [18] = assay: Cytotoxicity against human HOP92 cells assessed as cell growth at 0.1 uM after 48 hrs by sulforhodamine B assay relative to control; type: functional; details: HOP-92, 48 h, read-out: Activity
MCF7 [19] = assay: Inhibition of PI3K in human MCF7 cells assessed as increase in GSK-3beta phosphorylation at Ser9 at 2 uM after 24 hrs by Western blot analysis; type: cell-based
SK-MEL-2 [20] = assay: Cytotoxicity against human SK-MEL-2 cells assessed as cell growth at 1 uM after 48 hrs by sulforhodamine B assay relative to control; type: functional; details: SK-MEL-2, 48 h, read-out: Activity
MCF7 [21] = assay: Cell cycle arrest in human MCF7 cells assessed as accumulation at S phase at 2 uM after 24 hrs by flow cytometric analysis (reference value: 79.1%); type: functional
HOP-92 [22] = assay: Cytotoxicity against human HOP92 cells assessed as cell growth at 100 uM after 48 hrs by sulforhodamine B assay relative to control; type: functional; details: HOP-92, 48 h, read-out: Activity
SK-MEL-2 [23] = assay: Cytotoxicity against human SK-MEL-2 cells assessed as cell growth at 100 uM after 48 hrs by sulforhodamine B assay relative to control; type: functional; details: SK-MEL-2, 48 h, read-out: Activity
MCF7 [24] = assay: Inhibition of PI3K in human MCF7 cells assessed as downregulation of phosphorylated Akt levels at 2 uM after 24 hrs by Western blot analysis; type: cell-based
SK-MEL-2 [25] = assay: Cytotoxicity against human SK-MEL-2 cells assessed as cell growth at 10 uM after 48 hrs by sulforhodamine B assay relative to control; type: functional; details: SK-MEL-2, 48 h, read-out: Activity
LOX IMVI [26] = assay: Cytotoxicity against human LOXIMVI cells assessed as cell growth at 100 uM after 48 hrs by sulforhodamine B assay relative to control; type: functional; details: read-out: Activity
LOX IMVI [27] = assay: Cytotoxicity against human LOXIMVI cells assessed as cell growth at 10 uM after 48 hrs by sulforhodamine B assay relative to control; type: functional; details: read-out: Activity
CAKI-1 [28] = assay: Cytotoxicity against human Caki1 cells assessed as cell growth at 0.1 uM after 48 hrs by sulforhodamine B assay relative to control; type: functional; details: CAKI-1, 48 h, read-out: Activity
CAKI-1 [29] = assay: Cytotoxicity against human Caki1 cells assessed as cell growth at 100 uM after 48 hrs by sulforhodamine B assay relative to control; type: functional; details: CAKI-1, 48 h, read-out: Activity
HOP-92 [30] = assay: Cytotoxicity against human HOP92 cells assessed as growth inhibition after 48 hrs by sulforhodamine B assay; type: functional; details: HOP-92, 48 h
HOP-92 [31] = assay: Cytotoxicity against human HOP92 cells assessed as cell growth at 0.01 uM after 48 hrs by sulforhodamine B assay relative to control; type: functional; details: HOP-92, 48 h, read-out: Activity

With `COc1cc(C(=O)/C=C/c2cc(-c3cc(OC)c(OC)c(OC)c3)n[nH]2)cc(OC)c1OC` as the compound, how does the Activity (MCF7 [1]) read?
Its Activity is “Active”.

What about the Activity (MCF7 [2]) of the same compound?
The Activity was “Active”.

And the growth at 1 µM (LOX IMVI [3])?
Its growth at 1 µM is 82%.

What about the Activity (MCF7 [4]) of the same compound?
The Activity was 10.3%.

What about the growth at 1 µM (CAKI-1 [5]) of the same compound?
Its growth at 1 µM is 82%.

And the growth at 10 µM (HOP-92 [6])?
Its growth at 10 µM is -67%.

What about the Activity (MCF7 [7]) of the same compound?
Its Activity is “Active”.

What about the Activity (MCF7 [8]) of the same compound?
Its Activity is “Active”.

What about the growth at 0.01 µM (CAKI-1 [9]) of the same compound?
The growth at 0.01 µM was 91%.

And the Activity (MCF7 [10])?
The Activity was 1.1%.

What about the growth at 0.01 µM (SK-MEL-2 [11]) of the same compound?
Its growth at 0.01 µM is 104%.

What about the growth at 1 µM (HOP-92 [12]) of the same compound?
Its growth at 1 µM is 1%.

And the growth at 0.01 µM (LOX IMVI [13])?
Its growth at 0.01 µM is 102%.

What about the growth at 10 µM (CAKI-1 [14]) of the same compound?
Its growth at 10 µM is 4%.

And the growth at 0.1 µM (SK-MEL-2 [15])?
The growth at 0.1 µM was 111%.

What about the growth at 0.1 µM (LOX IMVI [16]) of the same compound?
Its growth at 0.1 µM is 101%.

And the LC50 (CAKI-1 [17])?
Its LC50 is 35.5 µM.

And the TGI (CAKI-1 [17])?
Its TGI is 10.9 µM.

And the growth at 0.1 µM (HOP-92 [18])?
The growth at 0.1 µM was 68%.

What about the “Activity call (increase in GSK-3beta Ser9 phosphorylation)” value (MCF7 [19]) of the same compound?
The value was “Active”.

What about the growth at 1 µM (SK-MEL-2 [20]) of the same compound?
The growth at 1 µM was 97%.

What about the Activity (MCF7 [21]) of the same compound?
The Activity was 73.1%.

What about the growth at 100 µM (HOP-92 [22]) of the same compound?
Its growth at 100 µM is -95%.

And the growth at 100 µM (SK-MEL-2 [23])?
Its growth at 100 µM is -96%.

And the “phospho-Akt downregulation (active/inactive)” value (MCF7 [24])?
Its value is “Active”.

What about the growth at 10 µM (SK-MEL-2 [25]) of the same compound?
The growth at 10 µM was -63%.

And the growth at 100 µM (LOX IMVI [26])?
The growth at 100 µM was -95%.

What about the growth at 10 µM (LOX IMVI [27]) of the same compound?
Its growth at 10 µM is -95%.

What about the growth at 0.1 µM (CAKI-1 [28]) of the same compound?
Its growth at 0.1 µM is 89%.

And the growth at 100 µM (CAKI-1 [29])?
Its growth at 100 µM is -94%.

What about the TGI (HOP-92 [30]) of the same compound?
Its TGI is 1.02 µM.

And the CC50 (HOP-92 [30]; read-out: LC50 (the source's name))?
Its CC50 is 5.54 µM.

And the growth at 0.01 µM (HOP-92 [31])?
Its growth at 0.01 µM is 86%.
